In ChEMBL document CHEMBL5365442, “A novel chalcone derivative exerts anticancer effects by promoting apoptotic cell death of human pancreatic cancer cells” (Bioorg Med Chem, 2023) one finds Activity, IC50 and logD data, which are given here for three molecules.

Activity calls are given as the source filed them. The calls are words filed in the database; no cut-off is given here.

Series [1] has as its system BXPC-3. Put plainly: Induction of apoptosis in human BXPC-3 cells assessed as increase in cleaved PARP level at 10 uM incubated for 24 hrs by Western blot analysis. Type of series: functional, cell-based.
The subject of series [2] is BXPC-3. Put plainly: Antiproliferative activity against human BXPC-3 cells assessed as inhibition of cell growth incubated for 24 hrs by WST-1 assay. The format is functional, cell-based. Particulars: BXPC-3, 24 h.
In series [3] the test system is BXPC-3. The series can be described thus: Antiproliferative activity against human BXPC-3 cells assessed as inhibition of cell growth incubated for 48 hrs by WST-1 assay. Type of series: functional, cell-based. Particulars: BXPC-3, 48 h. In general terms: Tetrazolium dyes change colour on reduction, which living cells bring about.
In series [4] the test system is BXPC-3. The series can be described thus: Antiproliferative activity against human BXPC-3 cells assessed as inhibition of cell growth incubated for 72 hrs by WST-1 assay. The format is functional, cell-based. Particulars: BXPC-3, 72 h.
Series [5] relates to BXPC-3. The series can be described thus: Induction of mitochodrial fission in human BXPC-3 cells assessed as reduction in mitochondrial length at 10 uM incubated for 24 hrs by MitoTracker Red CMX ROS staining based confocal microscopic analysis. The format is functional, cell-based.
The test system of series [6] is BXPC-3. The series can be described thus: Induction of apoptosis in human BXPC-3 cells assessed as increase in cleaved caspase 3 level at 10 uM incubated for 24 hrs by Western blot analysis. The format is functional, cell-based. (In western blotting, separated proteins are transferred to a membrane and probed.)
Series [7] relates to BXPC-3. The series can be described thus: Induction of apoptosis in human BXPC-3 cells assessed as increase in lipid level at 10 uM incubated for 24 hrs by SRS microspectroscopic analysis. Type of series: functional, cell-based.
Series [8] is described as follows: 1-octanol/PBS partition coefficient, logD of the compound at pH 7.4 by HPLC analysis. The format is physicochemical.
In series [9] the test system is BXPC-3. The series can be described thus: Induction of apoptosis in human BXPC-3 cells assessed as increase in cleaved PARP level at 30 uM incubated for 24 hrs by Western blot analysis. Type of series: functional, cell-based.
The subject of series [10] is BXPC-3. Put plainly: Induction of apoptosis in human BXPC-3 cells assessed as increase in number of dead cells at 30 uM incubated for 24 hrs by EthD-1 staining based fluorescence microscopic analysis relative to control. Type of series: functional.
In series [11] the test system is BXPC-3. Put plainly: Induction of apoptosis in human BXPC-3 cells assessed as nuclear condensation at 30 uM incubated for 24 hrs by Hoechst staining based confocal microscopic analysis. The format is functional, cell-based.
In series [12] the test system is BXPC-3. Put plainly: Induction of apoptosis in human BXPC-3 cells assessed as decrease in number of anti-Ki67 cells at 30 uM incubated for 24 hrs by anti-Ki67 staining based confocal microscopic analysis. Type of series: functional, cell-based.
The test system of series [13] is BXPC-3. The series can be described thus: Induction of mitochodrial fission in human BXPC-3 cells assessed as reduction in mitochondrial length at 30 uM incubated for 24 hrs by MitoTracker Red CMX ROS staining based confocal microscopic analysis relative to control. The format is functional. Details: scale not given: the % may be the effect or the level left.
The nature of series [14]: Downregulation of phosphorylated ERK protein expression in human BXPC-3 cells at 10 to 30 uM incubated for 24 hrs by Western blot analysis relative to control. The format is functional. Particulars: dose 10-30 µM.
The nature of series [15]: Upregulation of phosphorylated p38 protein expression in human BXPC-3 cells at 10 to 30 uM incubated for 24 hrs by Western blot analysis relative to control. The format is functional. Particulars: dose 10-30 µM.
Series [16] concerns BXPC-3. The series can be described thus: Induction of apoptosis in human BXPC-3 cells assessed as increase in cleaved caspase 3 level at 10 to 30 uM incubated for 24 hrs by Western blot analysis. Particulars: dose 10-30 µM. Type of series: functional, cell-based.
For series [17], the system named is BXPC-3. Put plainly: Induction of apoptosis in human BXPC-3 cells assessed as increase in BAX/Bcl-2 mRNA expression ratio at 30 uM incubated for 24 hrs by RT-PCR analysis relative to control. Type of series: functional.
Series [18] deals with BXPC-3. The series can be described thus: Induction of apoptosis in human BXPC-3 cells assessed as enlargement of cells at 30 uM incubated for 24 hrs by SRS microspectroscopic analysis. The format is functional, cell-based.
Series [19] concerns BXPC-3. The series can be described thus: Induction of apoptosis in human BXPC-3 cells assessed as porous appearance at 30 uM incubated for 24 hrs by SRS microspectroscopic analysis. Type of series: functional, cell-based.
For series [20], the system named is BXPC-3. Put plainly: Induction of apoptosis in human BXPC-3 cells assessed as membrane blebbing at 30 uM incubated for 24 hrs by SRS microspectroscopic analysis. The format is functional, cell-based.
The test system of series [21] is BXPC-3. The series can be described thus: Induction of apoptosis in human BXPC-3 cells assessed as accretion of lipid-like substances at 30 uM incubated for 24 hrs by SRS microspectroscopic analysis. The format is functional, cell-based.
For series [22], the system named is BXPC-3. Put plainly: Induction of apoptosis in human BXPC-3 cells assessed as increase in intensity of lipid-associated SRS bands at 30 uM incubated for 24 hrs by SRS microspectroscopic analysis. Type of series: functional, cell-based.
Series [23] has as its system BXPC-3. Put plainly: Induction of apoptosis in human BXPC-3 cells assessed as decrease in intensity of protein-associated SRS bands at 30 uM incubated for 24 hrs by SRS microspectroscopic analysis. Type of series: functional, cell-based.

Regarding `Nc1ccn([C@@H]2O[C@H](CO)[C@@H](O)C2(F)F)c(=O)n1` [GEMCITABINE], the result in the series with BXPC-3 [1], in the series with BXPC-3 [5], in the series on BXPC-3 [6] and in the series with BXPC-3 [7] was Active. Besides, the IC50 (in general, the concentration that gives 50% inhibition) with BXPC-3 [2] was determined as 12.2 µM; in the series with BXPC-3 [3] it was 6.83 µM; in the series on BXPC-3 [4] it was 5.51 µM.

Take `COc1ccc(O)c(C(=O)/C=C/c2cccc(OC)c2OC)c1`: in [8], the log distribution coefficient (logD) (in general, lipophilicity at a set pH, counting ionised and neutral species) was 2.98. Further, the figures for the concentration for half-maximal inhibition (IC50) in the series on BXPC-3 [2], with BXPC-3 [3] and with BXPC-3 [4] were 26.3 µM, 27.1 µM and 24 µM, respectively.

For `COc1ccc(OCC(O)CO)c(C(=O)/C=C/c2cccc(OC)c2OC)c1` (stereo not given), the outcome in the series on BXPC-3 [9], with BXPC-3 [11], with BXPC-3 [12], in the series with BXPC-3 [16], in the series on BXPC-3 [18] and with BXPC-3 [19] was Active. Moreover, the result with BXPC-3 [20], in the series with BXPC-3 [21], in the series with BXPC-3 [22] and with BXPC-3 [23] was Active. Further, the logD in series [8] turned out to be 2.42. In addition, the IC50 in the series with BXPC-3 [2] is 32.1 µM; with BXPC-3 [3], 11.7 µM; in the series on BXPC-3 [4], 7.94 µM. Besides, the Activity with BXPC-3 [10] worked out at 256.18%; in the series with BXPC-3 [13], 16%; in series [14], 50%; in series [15], 367.3%; in the series on BXPC-3 [17] it was 217.4%.
